Measurements: patent publication US20080227128A1, “Resonance Energy Transfer System and Method” (Mount Sinai School of Medicine of New York University, priority 2004, published 2008)
Like-named read-outs stand apart in the source and are kept apart here. *: point of attachment. Biotin = O=C1N[C@H]2[C@H](CS[C@H]2CCCCC(=O)*)N1

What was measured:
[1] = test system: PKA-Ala construct; experiment: BRET assay, PKA-Ala construct; type: cell-based, Human
[2] = test system: ankyrin B recruitment to the plasma membrane; experiment: Ankyrin B recruitment to the plasma membrane (immunofluorescence), HEK-293 cells with L1-CAM and ankyrin-B GFP; type: cell-based, Human
Description: HEK-293 cells were transfected with cDNA encoding an amino-terminal myc-epitope tagged full-length wild-type neuronal adhesion protein L1-CAM and a carboxy-terminal GFP-tagged ankyrin B construct using lipofectamine reagents. […] For immunolocalization, cells were fixed for 10 min using 1% (w/v) paraformaldehyde in 60 mM Pipes, 25 mM Hepes, 10 mM EGTA, and 2 mM MgCl2. Staining was performed as described previously (Felsenfeld et al. (1999) Nat. Cell Biol. 1:200-6). Briefly, ankyrin B was detected by indirect immunofluorescence using a rabbit anti-GFP polyclonal Ab and a donkey anti-rabbit Ab conjugated to indodicarbocyanince Cy5. L1-CAM was detected by indirect immunofluorescence using a mouse anti-myc monoclonal Ab and a donkey anti-mouse Ab conjugated to indocarbocyanine Cy3. […] Images were analyzed using NIH ImageJ (National Institutes of Health, Bethesda, Md.). […] Signal maximum for ankyrin staining at the junction between cells was determined at the position of the maximal L1-CAM staining to ensure that membrane rather than juxtamembrane staining was quantified. Minima were determined from the regions of the line overlapping the cytoplasm of either of the two cells. Membrane localization index was determined using the equation index=max/(max-min) as described (Gil et al. (2003) J. Cell Biol. 162:719-30). […]

[3] = test system: L1-SLADY BRET; experiment: BRET assay, L1-SLADY BRET reporter in HEK-293 cells; type: cell-based, Human
Excerpt: Another MAP kinase pathway reporter was constructed and tested using the methods described above and is outlined in the L1-SLADY BRET Data shown in FIGS. 5A, 5B, and 5C. The results of these figures are consistent with the other MAP kinase pathway data showing that the BRET system can be used as a MAP kinase pathway reporter.

[4] = test system: KGGKY construct; experiment: BRET assay, Src pathway reporter (KGGKY construct) in HEK-293 cells; type: cell-based, Human
Description: Using a target sequence derived from a tyrosine in the L1-CAM cytoplasmic tail, a reporter was generated encoding a 12 amino acid insert, including a terminal tyrosine ([…], SEQ ID NO: 13). […] However, the Src-family inhibitor PP1 causes an increase in the BRET efficiency at doses above 20 μM while a related inhibitor PP2 has no effect at similar doses (FIG. 9B, results are shown mean±standard deviation, *P<0.01). […] Fibroblasts derived from wild-type (+/+src) or Src-null (−/−src) mice were treated with FGF, which activates indirectly Src-family kinases.

[5] = test system: L1-BRET construct in ND7 cells; experiment: BRET assay, L1-BRET construct in ND7 cells; type: cell-based
Excerpt: (§1) To confirm that the effects of MEK inhibitors were due to the phosphorylation state of […] (SEQ ID NO: 1), the effect of PD98059 and U0126 was examined on the BRET ratio of the […] (SEQ ID NO: 3), […] (SEQ ID NO: 4), and […] (SEQ ID NO: 5) variant constructs. […] To determine whether components of the MAPK cascade are responsible for phosphorylating the FIGQY (SEQ ID NO: 12) sequence in other cell types, downstream of other RTKs, L1-BRET construct was transiently transfected into ND7 (neuroblastoma) and PC12 (pheochromocytoma) cells (Dunn et al. (1991) Brain Res. 545:80-86; Pang et al. (1995) J. Biol. Chem. 270:13585-13588).

[6] = test system: […], […], […] variant constructs; type: cell-based, Human
[7] = test system: L1-BRET construct; experiment: BRET assay, L1-BRET construct transfected in HEK-293 cells; type: cell-based, Human; conditions: for effect on the BRET ratio of the L1-BRET construct: HEK-293 cells; for effect on the BRET ratio of the L1-BRET construct / effect on the BRET ratio of EGF-stimulated cells: n=5; for effect on the BRET ratio of EGF-stimulated cells: src-family kinase inhibitors; for effect on the decrease in BRET ratio following EGF stimulation: pre-treating cells, genistein 100 μM
[8] = test system: L1-BRET construct in PC12 cells; experiment: BRET assay, L1-BRET construct in PC12 cells; type: cell-based, rat; conditions: pre-treated
Excerpt: as §1

[9] = test system: endogenous L1-CAM; experiment: Anti-phosphotyrosine immunoblot of endogenous L1-CAM, NGF-stimulated ND7 cells; type: cell-based; conditions: 100 μM
Description: (§2) Near-confluent cultures of HEK-293 cells, stably transfected with either an acceptor-insert-donor construct, or CHIM construct (SEQ ID NO: 2); or ND7 cells were harvested with trypsin-EDTA and resuspended to a density of 6×10^5 cells/ml. Aliquots (5 ml) of cell suspensions were added to 100 mm cell culture dishes (Corning Incorporated Life Sciences, Acton, Mass.) and incubated for 12 hrs at 37° C. Stably transfected HEK-293 cells were treated with genistein for 4 hrs at 37° C; and ND7 cells were treated with 100 μM PD98059 for 1 h and with 100 ng/ml NGF for 15 min. […] The protein concentrations of the supernatants were determined by using the BCA (bicinchoninic acid) protein assay (Pierce Chemical Company, Rockford, Ill.). […] Immobilized protein A beads were washed and resuspended in Laemnuli buffer, analyzed by SDS-PAGE, and transferred to nitrocellulose membrane. […]
To determine whether the MAPK signaling cascade can modulate tyrosine phosphorylation of full-length L1-CAM, the effect of MEK inhibitors was examined on ND7 cells stimulated with NGF. Cell lysates were immunoprecipitated with an anti-L1-CAM Ab and subsequently analyzed by immunoblotting (FIG. 2F) with an anti-phosphotyrosine Ab to detect phosphorylated L1-CAM (upper blot). […]

[10] = test system: PKA construct; experiment: BRET assay, PKA construct in HEK-293 cells; type: cell-based, Human; conditions: kinase inhibitors
Excerpt: A reporter was generated for PKA based on a target domain derived from fish connexin35 (Mitropoulou et al. (2003) J. Neurosci. Res. 72:147-157). The PKA insert target sequence ([…]) contains a carboxy-terminal serine phosphorylation target.

[11] = test system: myr-L1-BRET; experiment: BRET assay, myristoylated construct (myr-L1-BRET) in HEK-293 cells; type: cell-based, Human; conditions: 20 μM U0126
Description: (§4) Near-confluent cultures of HEK-293 cells were harvested with trypsin-EDTA (0.05% trypsin, 0.53 mM EDTA; Invitrogen Corporation, Carlsbad, Calif.) and resuspended to a density of 2.5×10^5 cells/ml. Aliquots (200 μl) of cell suspensions were added to white 96-well culture plates (CulturPlate™; PerkinElmer Life Sciences, Boston, Mass.) and incubated for 12 hrs at 37° C. HEK-293 cells were transfected with 0.1 μg of DNA/well using lipofectamine reagents (Lipofectamine Plus and Lipofectamine™; Invitrogen) according to the manufacturer's instructions. After incubation of plates for 48 hrs at 37° C., the cells were washed once with warm Dulbecco's Modified Eagle's Medium (D-MEM) without phenol red (Invitrogen) supplemented with 25 mM Hepes (Invitrogen). […] The plates were immediately counted using the Fusion Universal Microplate Analyzer (PerkinElmer Life Sciences).
(§5) Bioluminescence resulting from Rluc emission was counted at 410 nm using a 370-450 nm band pass filter and the fluorescence of GFP2 was counted at 515 nm using a 500-530 nm band pass filter. The efficiency of energy transfer between Rluc and GFP2 is determined by dividing acceptor emission intensity (GFP2) by donor emission intensity (Rluc). […]

[12] = test system: cerebellar granular neurons; experiment: Neurite outgrowth assay on laminin; type: cell-based, mouse; conditions: 10 μM U0126
Description: (§3) Neurite outgrowth experiments were performed as described (Gil et al. (2003) J. Cell Biol. 162:719-30) with slight modification. A 1 cm-diameter circle in a 35 mm petri dish (Becton Dickinson) was coated with poly-L-lysine (5 μg/ml in phosphate-buffered saline (PBS) from Speciality Media, Phillipsburg, N.J.) for 1 hr at room temperature. After several washes with PBS, the coated area was dried under the hood. Aliquots of 1 μl of neural-glial cell adhesion molecule (Ng-CAM, Gil et al. (2003) J. Cell Biol. 162:719-30) at 50 μg/ml or laminin at 30 μg/ml (Becton Dickinson) were spotted on the coated area. Dishes were incubated for 1 hr at room temperature, washed several times with PBS and then blocked with 1% (w/v) bovine serum albumin (BSA). Cerebellar cells were prepared from P2-P4 mouse and plated on the prepared dishes in BME/B27/glucose/glutamine/Pen-Strep media at a cell density of 3×10^5 cells/ml. Peptides and U0126 were diluted in DMSO (10 mg/ml for peptides, 13 mM for U0126) and further diluted in media (final concentration 10 μg/ml peptide; 10 μM U0126) which was added to the cultures when the cells were plated. Cultures were incubated for 2 days and fixed with 4% paraformaldehyde.

[13] = test system: cerebellar granular neurons; experiment: Neurite outgrowth assay on Ng-CAM; type: cell-based, mouse; conditions: 10 μM U0126
Description: as §3

[14] = test system: MEK; experiment: In vitro kinase assay with purified MEK; type: biochemical; conditions: for phosphorylation in the presence of purified MEK: substrate
[15] = test system: myr-FIGQH, myr-FIGQF; conditions: 20 μM U0126; tyrosine mutated to histidine or phenylalanine
Description: as §4, §5

[16] = test system: L1-BRET protein; experiment: Anti-phosphotyrosine immunoblot of L1-BRET protein, stably transfected HEK-293 cells; type: cell-based, Human; conditions: pretreated with genistein 100 μM
Description: as §2
Immunoblot analysis was performed (FIG. 1G). Cell lysates were immunoprecipitated with an anti-GFP Ab and subsequently analyzed by immunoblotting with an anti-phosphotyrosine Ab to detect phosphorylated BRET constructs (upper blot). […] There was no phosphotyrosine detected in the CHIM construct (SEQ ID NO: 2) in the presence or absence of genistein, consistent with the idea that phosphorylation of the FIGQY (SEQ ID NO: 12) tyrosine is responsible for the changes observed in the spectrum of L1-BRET.

Compound: Nc1ncnc2c1ncn2[C@@H]1O[C@@H]2COP(O)(=S)O[C@H]2[C@H]1O (single isomer, unassigned) [Sp-cAMPs, Adenosine-3′,5′-cyclic monophosphorothioate, Sp-isomer]
- effect on BRET ratio, serine mutated to alanine [1]: has no effect

Compound: COc1cccc(-c2cc(=O)c3ccccc3o2)c1N [PD98059]
- effect on the EGF-induced decrease in ankyrin B recruitment ([2]; 100 μM PD98059 with 100 ng/ml EGF): reversed
- effect on the decrease in BRET ratio (FIG. 5A, 5B) [3]: reverses the decrease in BRET ratio
- effect on this reporter ([4]; 100 μM): no detectible effect
- change in the BRET ratio of the L1-BRET construct in ND7 cells [5]: increases in the BRET ratio
- change in the BRET ratio of the variant constructs with MEK inhibitors [6]: no change in the BRET ratio
- effect on the BRET ratio of the L1-BRET construct [7]: increased the BRET ratio of the L1-BRET construct in a dose-dependent manner
- change in the BRET ratio of the L1-BRET construct in PC12 cells [8]: increases in the BRET ratio
- level of tyrosine phosphorylation of endogenous L1-CAM [9]: marked decrease in the level of tyrosine phosphorylation

Compound: Cc1ccc(-c2nn(C(C)(C)C)c3ncnc(N)c23)cc1 [PP1]
- doses causing an increase in the BRET efficiency ([4]; dose response): above 20 μM
- effect on the BRET ratio of EGF-stimulated cells [7]: had no effect on the BRET ratio
- effect on FRET efficiency of the PKA reporter [10]: had no effect on FRET efficiency

Compound: CC(C)(C)n1nc(-c2ccc(Cl)cc2)c2c(N)ncnc21 [PP2]
- effect on BRET efficiency at similar doses ([4]; doses similar to PP1 (above 20 μM)): has no effect
- effect on the BRET ratio of EGF-stimulated cells [7]: had no effect on the BRET ratio

Compound: N#CC(=C(/N)Sc1ccccc1N)/C(C#N)=C(\N)Sc1ccccc1N [U0126]
- change in BRET ratio of the myristoylated construct following inhibition of MEK [11]: increase in BRET ratio
- axon growth on laminin [12]: inhibited
- change in the BRET ratio of the L1-BRET construct in ND7 cells [5]: increases in the BRET ratio
- mean neurite length [13]: reduces mean neurite length
- change in the BRET ratio of the variant constructs with MEK inhibitors ([6]; 100 μM): no change in the BRET ratio
- effect on the BRET ratio of the L1-BRET construct [7]: increased the BRET ratio of the L1-BRET construct in a dose-dependent manner
- effect on the increase in phosphorylation of MEKSBS and […] peptide ([14]; purified MEK): inhibited
- change in BRET ratio of mutated myristoylated constructs following inhibition of MEK [15]: abolishes the increase in BRET ratio
- change in the BRET ratio of the L1-BRET construct in PC12 cells [8]: increases in the BRET ratio

Compound: O=c1c(-c2ccc(O)cc2)coc2cc(O)ccc12 [daidzein]
- effect on the decrease in BRET ratio following EGF stimulation [7]: had no effect

Compound: COC(=O)C=Cc1cc(O)ccc1O [erbstatin analog, methyl 2,5-dihydroxycinnamate]
- effect on the BRET ratio of the L1-BRET construct [7]: increased the BRET ratio of the L1-BRET construct in a dose-dependent manner

Compound: O=c1c(-c2ccc(O)cc2)coc2cc(O)cc(O)c12 [genistein]
- tyrosine phosphorylation of L1-BRET protein [16]: completely inhibited
- effect on the decrease in BRET ratio (FIG. 5A, 5B) [3]: reversing the decrease in BRET ratio
- effect on EGF-dependent decrease in BRET efficiency ([4]; 100 μM genistein, 100 ng/ml EGF): reversed
- change in the BRET ratio of the L1-BRET construct in ND7 cells [5]: increase in the BRET ratio
- effect on the decrease in BRET ratio following EGF stimulation [7]: reversed

Compound: Biotin-ADPDHDHTGFLTEYVATRW-OH [MEKSBS]
- phosphorylation in the presence of purified MEK [14]: phosphorylated

Compound: EGF: Epidermal growth factor (EGF), obtained from Sigma-Aldrich
- level of ankyrin B recruited to the plasma membrane ([2]; 100 ng/ml EGF): decrease in the level of ankyrin B recruited to the plasma membrane

Compound: KPLGSDDSLADY [L1-derived peptide phosphorylated by purified MEK]
- phosphorylation in the presence of purified MEK [14]: phosphorylated
